Laboratory results as given in patent publication US20160256535A1, “HEXAPEPTIDE AND USES THEREOF” (priority 2013, published 2016).
Primed or numbered codes have the meaning given here. No end group written: not given here. FITC′ = not defined here

Key:
[1] = tested on: sperm; assay: Sperm fluorescence microscopy with propidium iodide; assay type: cell-based, bovine; settings: 1 mg/ml, 37° C., 1 hour; sperm without red (propidium iodide) fluorescence
Method: Three fresh ejaculate from bovine, obtained from two different bulls, were mixed and diluted in Tris solution with a concentration of 100×10^6 sperm/ml, incubated at 37° C. for 1 hour in the presence of 1 mg/ml of FITC-rMnSOD-LP (hexapeptide) and 1 mg/ml of propidium iodide.
The peptide also enters in the sperm with a non-intact membrane. These sperm must not to be taken into consideration in the penetration study because if the membrane is broken, its permeability is not selective. The hexapeptide enters even in the dead, but for normal diffusion, not for selective activity of intact membranes.

[2] = tested on: Human Normal Lymphocytes; assay: Lymphocyte penetration, immunocytochemistry / immunofluorescence; assay type: cell-based
Method: Human Normal Lymphocytes cells were collected from healthy donors and purified using Ficoll Hystopaque density gradient centrifugation. The cells were cultured at a density of 1×10^6 cells/mL in RPMI media supplemented with 1% Penstrep and 10% FBS in a humidified atmosphere containing 5% CO2 at 37° C.
(§1) A cytospin was used to smear cells onto slides. The smears were fixed in Zamboni solution (4% paraformaldehyde, 15% picric acid) for 60 minutes and then washed with 1×PBS and incubated for five minutes with 3% hydrogen peroxide to quench endogenous peroxidase activity. Immunostaining was performed using the DAKO LSA+System HRP kit. Rabbit anti-rMnSOD-Lp (1:200), was incubated on slides for 30 minutes, followed by incubation with the biotinylated secondary antibody for 30 minutes and peroxidase-labeled streptavidin for 30 minutes. To complete the reaction, a substrate-chromogen solution was used. The smears were counterstained with hematoxylin.

[3] = tested on: cells; assay: Ability of hexapeptide conjugated to fluorescein to enter cells (immunocytochemistry); assay type: cell-based; settings: immunocytochemistry examination
Text: The test results are positive and confirms the previous data.

[4] = tested on: Jurkat cells; assay: Jurkat cell penetration, immunofluorescence; assay type: cell-based, human; settings: 92 μM, 3 h
Method: Jurkat cells (ATTC, UK) were seeded at density of 150000 cells/well in RPMI media supplemented with 1% Penstrep and 10% FBS in a humidified atmosphere containing 5% CO2 at 37°. The next day, the cells were incubated with 92 μM AVCGTG (SEQ ID NO. 1)-FITC for 3 h in multiwell 24. Subsequently, a cytospin was used to smear cells onto slides. The smears were fixed with 4% paraformaldehyde/PBS for 10 min and rinsed twice with 1×PBS containing 0.1% Triton to remove traces of fixative. Cell samples without AVCGTG (SEQ ID NO. 1)-FITC were used for the background control. After blocking solution with 5% NGS (Normal Goat Serum, VECTOR) 1×PBS+0,1% Triton X-100, was added for 30 minutes. After removing the blocking solution, cells were incubated with primary antibody hexapeptide, diluted 1:200 in blocking solution, overnight at 4° C. The following day, after washing with lx PBS and 0.1% Triton X-100 for 10 minutes, secondary antibody (ALEXA FLUO 488A, SANTACRUZ) diluted 1:400 with 1×PBS and 0.1% Triton X-100 for 2 h was added. The excess of antibody was removed with 3 washes with 1×PBS.
Nuclei were stained with DAPI (1 μg/mL). The slides were mounted and stored in the dark at 4° C. and then observed by fluorescence microscope ZEISS HB050 by using the software Axion Vision Re1.4.8.

[5] = tested on: MCF-7 cells; assay: Internalization of fluoresceinated hexapeptide by confocal and fluorescence microscopy; assay type: cell-based, human; settings: for internalization by confocal microscopy: 0.125 μM, 3 hr
Method: The confocal analysis was performed by placing the cells of human breast cancer (MCF-7, ATCC HTB-22) on suitable slides (MatTek, Ashland Corporation MA, U.S.). The hexapaptide to the concentration of 0.125 μM was then added to the cells.
The protocol used for the internalization of the PEP-6 FAM includes two separate experiments. A first experiment was done using PEP 6-FAM to 92 μM for 3 hr and the internalization was assessed. To these cells, already treated with PEP6-FAM, primary Ab anti-PEP 24 1:20 overnight at 4° C. was added and, as secondary antibody goat anti rabbit fluorescent CF 488A; and to 1 plate, already treated with PEP6 FAM, it was added the primary antibody anti rMnSOD 1:20 overnight and the secondary CF555 rodamynated donkey anti sheep. For 45 min-1 hr.
In the second experiment, the PEP 6-FAM was used at 92 μM to 1 hr and 3 hr with fixation in ethanol and paraformaldehyde, and for both times it was assessed the penetration alone, without the addition of the antibody and with the addition of primary antibody anti rMnSOD with three different dilutions (1500-1:1000-1:2000) in 5% NGS (Normal Goat Serum) in PBS +0.1% Triton overnight at 4° C. and, the secondary antibody anti rhodium CF 555 sheep 1:400 for 45′-1 hr. The nuclei were subsequently stained with 10 μg for ml^−1 DAPI (4′,6-diamidin-2-phenylindole, LIFE™ Thencologies).

[6] = tested on: white blood cells; assay: White blood cell penetration, immunocytochemistry at light microscopy; assay type: cell-based, human; settings: healthy subject
Method: as §1, with “Lymphocytes were incubated for five hours in the presence of fluorescinated Hexapeptide 92 μM. A cytospin” for “A cytospin”

AVCGTG (SEQ ID NO. 1)-FITC (AVCGTG-{FITC′})
viable sperm showing green fluorescence in the mid piece of the tail [1]: 100% | internalization in lymphocytes ([2]; 3 hour incubation): most cells internalized | percentage of labeled cells ([2]; lymphocytes, 92 μM, 3 hours): 95% | penetration into the cells [3]: penetrates into the cells | penetration into Jurkat cells [4]: penetrates in Jurkat cells | penetration by fluorescence optical microscopy [5]: penetrates into the MCF-7 breast cancer cells | internalization by confocal microscopy ([5]; listed as FITC-PEP): internalized into the cytoplasm | internalization by confocal microscopy ([5]; listed as FTC-peptide): internalized in the cytoplasm | penetration into white blood cells [6]: penetrates in white blood cells
